Here are results for four compounds from US6992169B2, “Carrier based drug delivery system” (Cyclacel Limited, priority 1998, dated 2006).

One series concerns HL60 cells. Kind of series: Intracellular stability. The note with it: 15 μM for 1 h, washed, 1 additional h neat medium. Type of series: in vitro ADME. The method, then:
After the incubation, cells were washed extensively with PBS until no test compound was detectable in the washes. Cells were incubated for one additional h with neat medium. Afterwards the cells were pelleted, resuspended in 50 mM Tris pH 7.5, containing a cocktail of protease inhibitors and they were solubilised by ultrasonication for 1 min. The insoluble fraction was pelleted for 15 min using an Eppendorf centrifuge and the supernatant was analysed by anal. RP-HPLC (0-60% MeCN gradient, λ=254 nm).

The nature of series [1]: Serum stability of drug-ester linkages. Type of series: in vitro ADME. The note with it: bovine; 10% FCS in DMEM, 1 to 40 μM, 37° C.; appearance of free drug; read-out: Serum t1/2 of Drug-Linker Ester bond. The method, then: Hydrolysis of the ester bonds between the drug hydroxy groups and the linker carboxyl groups was assessed by appearance of free podophyllotoxin or paclitaxel.

The next series concerns A2780Cis^R. Kind of series: Carcinoma cell line panel, SRB-assay. The conditions noted are these: Homo sapiens, A2780cisR, 96 h, read-out: 96-h IC50 cytotoxicity. The method, then:
(§1) After incubation for 96 h, cytotoxicity was assessed using a standard SRB-assay.

A further series concerns A2780. Kind of series: Carcinoma cell line panel, SRB-assay. The note with it: Homo sapiens, A2780, 96 h, read-out: 96-h IC50 cytotoxicity. The method, then: as §1
The next series relates to BE. Put plainly: Carcinoma cell line panel, SRB-assay. The note with it: 96 h, read-out: 96-h IC50 cytotoxicity. As to the method:
as §1

A further series relates to CH1Dox^R. Kind of series: Carcinoma cell line panel, SRB-assay. The conditions noted are these: 96 h, read-out: 96-h IC50 cytotoxicity. As to the method: as §1
A further series has as its system CH1Taxol^R. Kind of series: Carcinoma cell line panel, SRB-assay. The conditions noted are these: 96 h, read-out: 96-h IC50 cytotoxicity. As to the method:
as §1

In a further series the test system is CH1. Kind of series: Carcinoma cell line panel, SRB-assay. The note with it: Homo sapiens, CH1, 96 h, read-out: 96-h IC50 cytotoxicity. As to the method: as §1
In another series the test system is COLO205. Put plainly: Carcinoma cell line panel, SRB-assay. The conditions noted are these: Homo sapiens, COLO 205, 96 h, read-out: 96-h IC50 cytotoxicity. As to the method: as §1
The test system of a further series is DLD-1. Kind of series: Carcinoma cell line panel, SRB-assay. The conditions noted are these: Homo sapiens, DLD-1, 96 h, read-out: 96-h IC50 cytotoxicity. The method, then:
as §1

Another series relates to HCT116. Kind of series: Carcinoma cell line panel, SRB-assay. The conditions noted are these: Homo sapiens, HCT-116, 96 h, read-out: 96-h IC50 cytotoxicity. As to the method: as §1
The next series deals with HT29. Put plainly: Carcinoma cell line panel, SRB-assay. The note with it: Homo sapiens, HT-29, 96 h, read-out: 96-h IC50 cytotoxicity. As to the method:
as §1

In another series the test system is KM12. Kind of series: Carcinoma cell line panel, SRB-assay. The note with it: Homo sapiens, KM12, 96 h, read-out: 96-h IC50 cytotoxicity. As to the method:
as §1

A further series relates to LIM1215. Kind of series: Carcinoma cell line panel, SRB-assay. The note with it: LIM1215, 96 h, read-out: 96-h IC50 cytotoxicity. As to the method:
as §1

The next series concerns LS174T. Put plainly: Carcinoma cell line panel, SRB-assay. The note with it: Homo sapiens, 96 h, read-out: 96-h IC50 cytotoxicity. The method, then: as §1
In the next series the test system is SKOV-3. Kind of series: Carcinoma cell line panel, SRB-assay. The note with it: Homo sapiens, SK-OV-3, 96 h, read-out: 96-h IC50 cytotoxicity. As to the method: as §1
A further series has as its system A549 lung carcinoma. Put plainly: Cytotoxic activity, MTT-assay. The class given is cell-based. The note with it: Homo sapiens. The method, then: (§2) Assay procedure—Cells were seeded into 96-well plates at 2,500 cells per well in DMED, containing 10% FCS and antibiotics. After overnight incubation, test compounds were prepared as dilution series in cell medium (addition of dimethylsulfoxide in the case of free paclitaxel to effect partial dissolution) and were added to the cells. For the 1-h exposure samples, incubation was continued for 1 h, cell culture medium supernatants were removed and the wells were further washed with cell culture medium (5×2 min). Total viable cells were quantitated after a total of 72 h incubation using a standard MTT-assay.

The next series concerns MCF7 breast carcinoma. Kind of series: Cytotoxic activity, MTT-assay. The class given is cell-based. The note with it: Homo sapiens. The method, then: as §2

In the case of `CCC(C)[C@H](NC(=O)[C@H](CCCCN)NC(=O)[C@@H](NC(=O)[C@H](CCC(N)=O)NC(=O)[C@H](CCCNC(=N)N)NC(=O)[C@@H](N)CSC1CC(=O)N(CCC(=O)O[C@H]2c3cc4c(cc3[C@@H](c3cc(OC)c(OC)c(OC)c3)[C@H]3C(=O)OC[C@@H]32)OCO4)C1=O)C(C)CC)C(=O)N[C@@H](Cc1c[nH]c2ccccc12)C(=O)N[C@@H](Cc1ccccc1)C(=O)N[C@@H](CCC(N)=O)C(=O)N[C@@H](CC(N)=O)C(=O)N[C@@H](CCCNC(=N)N)C(=O)N[C@@H](CCCNC(=N)N)C(=O)N[C@@H](CCSC)C(=O)N[C@@H](CCCCN)C(=O)N[C@@H](Cc1c[nH]c2ccccc12)C(=O)N[C@@H](CCCCN)C(=O)N[C@@H](CCCCN)C(N)=O` (stereo partly drawn) [A], the “Intact test compound in supernatant of solubilised cells” value in the series with HL60 cells (RP-HPLC and MALDI-TOF MS) is “Intact test compound was identified”. Further, the “Test compound in DMSO extracts of pellets” value with HL60 cells (insoluble fraction) was “no test compound was detected”. The half-life in series [1] is > 1440 min.

For the compound `CCC(C)[C@H](NC(=O)[C@H](CCCCN)NC(=O)[C@@H](NC(=O)[C@H](CCC(N)=O)NC(=O)[C@H](CCCNC(=N)N)NC(=O)[C@@H](N)CSCC(=O)O[C@H]1c2cc3c(cc2[C@@H](c2cc(OC)c(OC)c(OC)c2)[C@H]2C(=O)OC[C@@H]21)OCO3)C(C)CC)C(=O)N[C@@H](Cc1c[nH]c2ccccc12)C(=O)N[C@@H](Cc1ccccc1)C(=O)N[C@@H](CCC(N)=O)C(=O)N[C@@H](CC(N)=O)C(=O)N[C@@H](CCCNC(=N)N)C(=O)N[C@@H](CCCNC(=N)N)C(=O)N[C@@H](CCSC)C(=O)N[C@@H](CCCCN)C(=O)N[C@@H](Cc1c[nH]c2ccccc12)C(=O)N[C@@H](CCCCN)C(=O)N[C@@H](CCCCN)C(=O)O` (stereo partly drawn) [B], in series [1], the half-life is 40 min.

For `COc1cc([C@@H]2c3cc4c(cc3[C@@H](O[C@@H]3O[C@@H]5CO[C@@H](C)O[C@H]5[C@H](O)[C@H]3O)[C@H]3COC(=O)[C@H]23)OCO4)cc(OC)c1O` [Etoposide], the IC50 with A2780Cis^R is 680 nM; in the series on A2780, 210 nM; with BE, 1100 nM; with CH1Dox^R it was 6.6 µM; with CH1Taxol^R, 145 nM; with CH1, 165 nM. Besides, the IC50 in the series on COLO205 was 800 nM; with DLD-1 it was 570 nM; in the series on HCT116, 1900 nM; in the series on HT29, 2600 nM; with KM12 it was 580 nM; in the series on LIM1215, 330 nM. Moreover, the figures for the IC50 with LS174T and in the series with SKOV-3 were 460 nM and 13 µM, respectively.

Consider `CC(=O)O[C@H]1C(=O)[C@@]2(C)[C@H]([C@H](OC(=O)c3ccccc3)[C@]3(O)C[C@H](OC(=O)[C@H](O)[C@@H](NC(=O)c4ccccc4)c4ccccc4)C(C)=C1C3(C)C)[C@]1(OC(C)=O)CO[C@@H]1C[C@@H]2O` [Paclitaxel], for which the 50% inhibitory concentration (IC50) with A549 lung carcinoma (72 h, A549, Exposure time 3 d) is < 15 nM; in the series on A549 lung carcinoma (A549, Exposure time 1 h, then washed, viable cells after total 72 h) it was 28 nM; in the series on MCF7 breast carcinoma (72 h, MCF7, Exposure time 3 d), < 15 nM; with MCF7 breast carcinoma (MCF7, Exposure time 1 h, then washed, viable cells after total 72 h), 40 nM; with A2780Cis^R, 5.1 nM; in the series with A2780 it was < 2.5 nM. Also, the IC50 with BE was < 2.5 nM; with CH1Dox^R, 0.54 µM; with CH1Taxol^R, 5.8 nM; with CH1, 4.15 nM; in the series with COLO205 it was 2.6 nM; in the series with DLD-1, 54 nM. Further, the IC50 with HCT116 is < 2.5 nM; in the series with HT29, < 2.5 nM; in the series on KM12, 2.85 nM; in the series with LIM1215, 5.8 nM; with LS174T, 8.5 nM; in the series with SKOV-3, 0.01 µM.
